Earlier results as cited in US9517265B2, “Methods for the prevention and/or treatment of memory impairment” (The Governing Council of the University of Toronto, priority 2010, dated 2016).

Molecular target: T1, α5GABAA receptors (Homo sapiens, UniProt P18507+P31644)
T1 sequence (P31644 32-462): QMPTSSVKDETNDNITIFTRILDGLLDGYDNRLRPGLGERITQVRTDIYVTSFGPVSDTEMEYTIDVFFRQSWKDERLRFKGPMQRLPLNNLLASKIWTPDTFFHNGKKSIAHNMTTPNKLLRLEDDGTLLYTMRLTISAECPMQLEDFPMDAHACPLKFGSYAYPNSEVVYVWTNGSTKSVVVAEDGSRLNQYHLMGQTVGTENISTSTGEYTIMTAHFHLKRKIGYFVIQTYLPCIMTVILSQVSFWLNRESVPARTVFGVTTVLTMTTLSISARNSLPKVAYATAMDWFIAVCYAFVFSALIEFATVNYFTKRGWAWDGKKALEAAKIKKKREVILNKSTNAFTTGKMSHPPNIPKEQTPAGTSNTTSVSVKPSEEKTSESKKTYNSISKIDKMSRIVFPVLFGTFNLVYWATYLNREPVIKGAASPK
T1 sequence (P28472 26-473 partner): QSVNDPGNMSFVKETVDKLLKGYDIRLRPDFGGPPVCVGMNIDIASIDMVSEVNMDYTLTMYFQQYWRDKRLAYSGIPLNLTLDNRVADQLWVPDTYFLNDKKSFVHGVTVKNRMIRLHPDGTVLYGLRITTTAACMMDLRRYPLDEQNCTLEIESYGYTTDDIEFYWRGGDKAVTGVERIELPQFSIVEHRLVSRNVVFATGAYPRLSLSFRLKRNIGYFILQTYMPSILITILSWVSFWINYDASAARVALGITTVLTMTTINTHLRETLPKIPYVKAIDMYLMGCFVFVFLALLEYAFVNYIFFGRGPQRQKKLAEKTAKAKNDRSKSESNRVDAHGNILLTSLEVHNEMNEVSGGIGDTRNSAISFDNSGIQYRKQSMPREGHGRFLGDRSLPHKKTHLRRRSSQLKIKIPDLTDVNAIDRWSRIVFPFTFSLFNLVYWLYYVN
T1 sequence (P18507 40-467 limits assumed): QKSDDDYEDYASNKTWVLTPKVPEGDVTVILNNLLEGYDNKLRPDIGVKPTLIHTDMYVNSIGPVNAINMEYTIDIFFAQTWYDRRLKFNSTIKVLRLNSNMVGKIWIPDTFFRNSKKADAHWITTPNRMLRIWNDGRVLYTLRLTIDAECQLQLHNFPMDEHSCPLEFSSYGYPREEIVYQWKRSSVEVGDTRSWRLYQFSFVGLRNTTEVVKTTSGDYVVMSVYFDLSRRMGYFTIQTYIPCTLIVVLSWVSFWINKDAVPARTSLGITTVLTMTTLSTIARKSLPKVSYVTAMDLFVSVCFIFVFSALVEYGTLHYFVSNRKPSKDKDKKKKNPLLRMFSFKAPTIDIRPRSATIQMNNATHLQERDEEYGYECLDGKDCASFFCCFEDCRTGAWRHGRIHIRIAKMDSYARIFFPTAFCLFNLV
Details: cited from earlier work

CCOC(=O)c1ncn2c1[C@@H]1CCCN1C(=O)c1cc(OC)ccc1-2 [L-655,708]
affinity for α5GABAA receptors relative to other receptor subtypes: 50 fold
preference for α5GABAA receptors over α2 subunit-containing GABAA receptors: 61 fold
preference for α5GABAA receptors over α3 subunit-containing GABAA receptors: 54 fold
preference for α5GABAA receptors over α1 subunit-containing GABAA receptors (in vitro electrophysiological and biochemical studies): 107 fold
